Data published in PubChem BioAssay AID248 (DTP/NCI, 2004).
Inconclusive results and toxic doses are left out.

System: L1210 leukemia ip in BDF1 mice, survival T/C
Assay: NCI In Vivo Anticancer Drug Screen. Data for tumor model L1210 Leukemia (intraperitoneal) in B6D2F1 (BDF1) mice
Settings: endpoint: mean survival time, higher = longer survival
Method in brief: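 Survival endpoint. Drug-treated group vs vehicle group, expressed as T divided by C. Tumor passaged by transplantation.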

[1] = dose: 100.0 mg/kg/injection, schedule: Q04DX002 (ip), vehicle: Klucel (hydroxypropylcellulose) (HPC)
[2] = dose: 200.0 mg/kg/injection, schedule: Q04DX002 (ip), vehicle: Klucel (hydroxypropylcellulose) (HPC)
[3] = dose: 100.0 mg/kg/injection, schedule: Q01DX009 (ip), vehicle: Klucel (hydroxypropylcellulose) (HPC)
[4] = dose: 100.0 mg/kg/injection, schedule: Q04DX003 (ip), vehicle: Klucel (hydroxypropylcellulose) (HPC)
[5] = dose: 200.0 mg/kg/injection, schedule: Q01DX009 (ip), vehicle: Klucel (hydroxypropylcellulose) (HPC)
[6] = dose: 200.0 mg/kg/injection, schedule: Q04DX003 (ip), vehicle: Klucel (hydroxypropylcellulose) (HPC)
[7] = dose: 400.0 mg/kg/injection, schedule: Q04DX003 (ip), vehicle: Klucel (hydroxypropylcellulose) (HPC)
[8] = dose: 100.0 mg/kg/injection, schedule: Q01DX009 (ip), vehicle: saline
[9] = dose: 100.0 mg/kg/injection, schedule: Q04DX003 (ip), vehicle: saline
[10] = dose: 200.0 mg/kg/injection, schedule: Q04DX003 (ip), vehicle: saline
[11] = dose: 50.0 mg/kg/injection, schedule: Q01DX009 (ip), vehicle: saline
[12] = dose: 200.0 mg/kg/injection, schedule: Q01DX009 (ip), vehicle: saline
[13] = dose: 100.0 mg/kg/injection, schedule: Q01DX001 (ip), vehicle: carboxymethylcellulose (CMC)
[14] = dose: 200.0 mg/kg/injection, schedule: Q01DX001 (ip), vehicle: carboxymethylcellulose (CMC)
[15] = dose: 400.0 mg/kg/injection, schedule: Q01DX009 (ip), vehicle: Klucel (hydroxypropylcellulose) (HPC)

N#CCCN(C(=O)Nc1ccc(Cl)c(Cl)c1)C1CCCCC1
T/C [1]: 107 % of control | T/C [2]: 100 % of control | T/C (dose: 400.0 mg/kg/injection, schedule: Q04DX002 (ip), vehicle: Klucel (hydroxypropylcellulose) (HPC)): 111 % of control

Cc1cc(OC(=O)Nc2cccc(Cl)c2)ccc1[N+](=O)[O-]
T/C [3]: 101 % of control | T/C [4]: 90 % of control | T/C [5]: 101 % of control | T/C [6]: 95 % of control | T/C [7]: 90 % of control

O=C1c2ccccc2CCC1(Br)C(Br)c1ccccc1 (stereo not drawn)
T/C (dose: 100.0 mg/kg/injection, schedule: Q04DX003 (ip), vehicle: acetone): 96 % of control | T/C (dose: 200.0 mg/kg/injection, schedule: Q04DX003 (ip), vehicle: acetone): 101 % of control | T/C (dose: 400.0 mg/kg/injection, schedule: Q04DX003 (ip), vehicle: acetone): 92 % of control

CCC(=O)OC1(c2ccccc2)CCN(CCNc2ccccc2)CC1
T/C (dose: 20.0 mg/kg/injection, schedule: Q04DX003 (ip), vehicle: Klucel (hydroxypropylcellulose) (HPC)): 100 % of control | T/C (dose: 40.0 mg/kg/injection, schedule: Q04DX003 (ip), vehicle: Klucel (hydroxypropylcellulose) (HPC)): 103 % of control | T/C (dose: 80.0 mg/kg/injection, schedule: Q04DX003 (ip), vehicle: Klucel (hydroxypropylcellulose) (HPC)): 105 % of control

COc1ccc(C(N)=O)cc1
T/C (dose: 100.0 mg/kg/injection, schedule: Q04DX002 (ip), vehicle: saline with Tween-80): 94 % of control | T/C (dose: 200.0 mg/kg/injection, schedule: Q04DX002 (ip), vehicle: saline with Tween-80): 94 % of control | T/C (dose: 400.0 mg/kg/injection, schedule: Q04DX002 (ip), vehicle: saline with Tween-80): 109 % of control

C1CCN(NC2=NCCO2)CC1
T/C [8]: 95 % of control

CC(=O)c1ccc(N2CCN(c3ccc(C(C)=O)cc3)CC2)cc1
T/C [9]: 93 % of control | T/C [10]: 95 % of control | T/C (dose: 400.0 mg/kg/injection, schedule: Q04DX003 (ip), vehicle: saline): 98 % of control

Cc1cc(C)c(-n2c(C)nc3ccccc3c2=O)c([N+](=O)[O-])c1
T/C (dose: 12.5 mg/kg/injection, schedule: Q01DX009 (ip), vehicle: Klucel (hydroxypropylcellulose) (HPC)): 96 % of control | T/C (dose: 25.0 mg/kg/injection, schedule: Q01DX009 (ip), vehicle: Klucel (hydroxypropylcellulose) (HPC)): 104 % of control | T/C (dose: 50.0 mg/kg/injection, schedule: Q01DX009 (ip), vehicle: Klucel (hydroxypropylcellulose) (HPC)): 89 % of control | T/C [3]: 109 % of control

CC(CO)NC(=O)C1C=C2c3cccc4[nH]cc(c34)CC2N(C)C1 (stereo not drawn)
T/C (dose: 3.12 mg/kg/injection, schedule: Q04DX003 (ip), vehicle: saline): 114 % of control | T/C (dose: 6.25 mg/kg/injection, schedule: Q04DX003 (ip), vehicle: saline): 114 % of control | T/C (dose: 12.5 mg/kg/injection, schedule: Q01DX009 (ip), vehicle: saline): 109 % of control | T/C (dose: 12.5 mg/kg/injection, schedule: Q04DX003 (ip), vehicle: saline): 114 % of control | T/C (dose: 25.0 mg/kg/injection, schedule: Q01DX009 (ip), vehicle: saline): 95 % of control | T/C (dose: 25.0 mg/kg/injection, schedule: Q04DX003 (ip), vehicle: saline): 101 % of control | T/C [11]: 96 % of control | T/C (dose: 50.0 mg/kg/injection, schedule: Q04DX003 (ip), vehicle: saline): 103 % of control | T/C [8]: 95 % of control | T/C [9]: 100 % of control | T/C [12]: 96 % of control | T/C [10]: 102 % of control

CC12CCC(=O)OC1(C)OC(=O)CC2 (stereo not drawn)
T/C [8]: 94 % of control | T/C [12]: 100 % of control | T/C (dose: 400.0 mg/kg/injection, schedule: Q01DX009 (ip), vehicle: saline): 95 % of control

C[C@H]1CCC/C=C/[C@@H]2C[C@H](O)C[C@H]2[C@H](O)/C=C/C(=O)O1
T/C [13]: 105 % of control | T/C (dose: 100.0 mg/kg/injection, schedule: Q01DX001 (ip), vehicle: other): 92 % of control | T/C (dose: 100.0 mg/kg/injection, schedule: Q01DX015 (ip), vehicle: water): 96 % of control | T/C [14]: 103 % of control | T/C (dose: 200.0 mg/kg/injection, schedule: Q01DX001 (ip), vehicle: other): 95 % of control | T/C (dose: 200.0 mg/kg/injection, schedule: Q01DX015 (ip), vehicle: water): 103 % of control | T/C (dose: 400.0 mg/kg/injection, schedule: Q01DX001 (ip), vehicle: other): 93 % of control

O=NN(CCCl)C(=O)NCCc1cccc[n+]1[O-]
T/C (dose: 6.25 mg/kg/injection, schedule: Q01DX001 (ip), vehicle: water): 154 % of control | T/C (dose: 12.5 mg/kg/injection, schedule: Q01DX001 (ip), vehicle: water): 184 % of control | T/C (dose: 25.0 mg/kg/injection, schedule: Q01DX001 (ip), vehicle: water): 312 % of control

O=C1NCCCC1O (stereo not drawn)
T/C (dose: 50.0 mg/kg/injection, schedule: Q01DX001 (ip), vehicle: carboxymethylcellulose (CMC)): 94 % of control | T/C [13]: 89 % of control | T/C [14]: 105 % of control | T/C (dose: 400.0 mg/kg/injection, schedule: Q01DX001 (ip), vehicle: carboxymethylcellulose (CMC)): 103 % of control

O=c1[nH]c2cc3[nH]c(=O)c(=O)c3cc2c1=O
T/C [3]: 102 % of control | T/C [5]: 100 % of control | T/C [15]: 100 % of control

CCCCCCCCCCCCNC(=O)Nc1cccc(C)c1C
T/C [3]: 89 % of control | T/C [4]: 98 % of control | T/C [5]: 100 % of control | T/C [6]: 95 % of control | T/C [15]: 89 % of control | T/C [7]: 95 % of control

CCOCCC(=O)NCc1ccccc1
T/C (dose: 100.0 mg/kg/injection, schedule: Q01DX001 (ip), vehicle: saline with Tween-80): 100 % of control | T/C (dose: 200.0 mg/kg/injection, schedule: Q01DX001 (ip), vehicle: saline with Tween-80): 104 % of control | T/C (dose: 400.0 mg/kg/injection, schedule: Q01DX001 (ip), vehicle: saline with Tween-80): 106 % of control

CC1=NN(c2ccccc2)C(=O)C1C(=O)c1ccccc1 (stereo not drawn)
T/C (dose: 25.0 mg/kg/injection, schedule: Q01DX009 (ip), vehicle: saline with Tween-80): 92 % of control | T/C (dose: 50.0 mg/kg/injection, schedule: Q01DX009 (ip), vehicle: saline with Tween-80): 95 % of control | T/C (dose: 100.0 mg/kg/injection, schedule: Q04DX003 (ip), vehicle: saline with Tween-80): 94 % of control

CC(=O)OCC(OC(C)=O)C(OC(C)=O)C(/C=C/N=[N+]([O-])c1ccccc1)OC(C)=O (stereo not drawn)
T/C (dose: 50.0 mg/kg/injection, schedule: Q01DX001 (ip), vehicle: saline): 100 % of control | T/C (dose: 100.0 mg/kg/injection, schedule: Q01DX001 (ip), vehicle: saline): 94 % of control | T/C (dose: 200.0 mg/kg/injection, schedule: Q01DX001 (ip), vehicle: saline): 100 % of control

O=C(NC1CCC12CC2)c1ccc2ccccc2c1 (stereo not drawn)
T/C (dose: 37.5 mg/kg/injection, schedule: Q04DX002 (ip), vehicle: saline with Tween-80): 97 % of control | T/C (dose: 75.0 mg/kg/injection, schedule: Q04DX002 (ip), vehicle: saline with Tween-80): 93 % of control | T/C (dose: 150.0 mg/kg/injection, schedule: Q04DX002 (ip), vehicle: saline with Tween-80): 93 % of control | T/C (dose: 300.0 mg/kg/injection, schedule: Q04DX002 (ip), vehicle: saline with Tween-80): 93 % of control

COC(=O)C1CC(C(N)=O)CC1OC(C)=O (stereo not drawn)
T/C [3]: 100 % of control | T/C [5]: 93 % of control | T/C [15]: 98 % of control

Nc1nc2nc[nH]c2c(Cl)c1Br
T/C [1]: 104 % of control | T/C [2]: 115 % of control

CC(C)C[C@H](O)C(=O)O
T/C (dose: 33.0 mg/kg/injection, schedule: Q01DX009 (ip), vehicle: saline): 98 % of control | T/C [11]: 98 % of control | T/C (dose: 75.0 mg/kg/injection, schedule: Q01DX009 (ip), vehicle: saline): 98 % of control | T/C [8]: 97 % of control | T/C [9]: 98 % of control | T/C [12]: 101 % of control | T/C [10]: 100 % of control
